Test results published in publication PMC8614999, “A Comparative Analysis of Punicalagin Interaction with PDIA1 and PDIA3 by Biochemical and Computational Approaches” (Biomedicines, 2021).

Experiments:
PDIA1 [1] = molecular target: T1, PDIA1 (Homo sapiens, UniProt P07237); assay: Tryptophan fluorescence quenching titration, PDIA1; type: binding; settings: for Stern–Volmer constant KSV: 0.1 × 10^−6 M protein; for Stern–Volmer constant KSV / Kd: pH 7.4, 25 °C; for Kd: fluorescence quenching
T1 construct: The pOLR130 plasmid encoding mature human PDIA1 with an N-terminal His6x-tag; His6 (N); made in house; host or cells: E. coli BL21
Experimental: (§1) Protein-ligand interactions were evaluated according to the fluorescence quenching titration method using a SPEX-FluoroMax spectrofluorometer (Horiba Scientific, Piscataway, NJ, USA). Emission spectra were recorded from 300 to 400 nm with an excitation wavelength set at 290 nm. The emission slit width was fixed to provide a 2 nm bandpass for all experiments. Scan speed was set at 120 nm min^−1. A total of 50 µM PDIA1 and PDIA3 stock solutions were reduced by adding DTT 5 mM. […] The titrations were performed by stepwise additions, at 5 min time intervals, of punicalagin solution from 0 to 4 µM (punicalagin 0.2 mM in PBS pH 7.4 freshly prepared from a 5 mM stock solution in water). Blank spectra for each experiment (no protein added) were performed in parallel for background determination. The emission spectrum of the protein was recorded three times, and the average reading values were then used for quenching analyses as already described.
(§2) Quenching of intrinsic tryptophan fluorescence at 338 nm has been analyzed by Stern–Volmer equation (Fo/F = 1 + KSV[L]), where F and F0 are the fluorescence intensity, respectively with or without ligand (L), and KSV is the Stern–Volmer constant value. Based on obtained results, punicalagin is able to quench the fluorescence of both proteins with a Stern–Volmer constant always greater than 1.0 × 10^4 M^−1 (Figure 2B and Table 1). […] In order to further characterize the binding process, data were analyzed using the equation described by Bi et al. and the reiterative calculation process described by Sun et al., providing an estimation of the Kd values (Table 1). Punicalagin binds both PDIAs in the micro-molar order of magnitude, showing a slightly greater affinity toward PDIA3, which tryptophan residues appear more quenchable upon punicalagin binding.

PDIA3 [2] = molecular target: T2, PDIA3 (Homo sapiens, UniProt P30101); assay: Disulfide reductase activity with di-E-GSSG, PDIA3; type: biochemical; settings: PDIA3, di-E-GSSG substrate
T2 construct: Mature human recombinant PDIA3 protein was expressed and purified; made in house
T2 sequence (P30101 25-505): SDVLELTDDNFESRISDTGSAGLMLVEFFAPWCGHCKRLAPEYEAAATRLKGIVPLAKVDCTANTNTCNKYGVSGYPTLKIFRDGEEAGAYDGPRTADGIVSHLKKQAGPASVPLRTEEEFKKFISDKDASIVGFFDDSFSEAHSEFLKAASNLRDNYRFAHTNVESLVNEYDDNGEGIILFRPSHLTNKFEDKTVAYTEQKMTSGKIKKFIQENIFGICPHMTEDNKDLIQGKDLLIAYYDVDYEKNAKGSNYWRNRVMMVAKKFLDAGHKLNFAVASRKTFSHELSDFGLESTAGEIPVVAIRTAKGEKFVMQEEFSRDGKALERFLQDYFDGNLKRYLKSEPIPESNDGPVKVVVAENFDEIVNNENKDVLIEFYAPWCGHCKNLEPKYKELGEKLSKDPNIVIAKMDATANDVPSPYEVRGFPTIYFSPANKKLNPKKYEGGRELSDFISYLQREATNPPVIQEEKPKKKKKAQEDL
Experimental: (§3) PDIAs disulfide reductase activity was monitored by using di-eosin glutathione disulfide (di-E-GSSG) as a fluorogenic substrate of PDIAs. Di-E-GSSG was synthesized by the reaction of eosin isothiocyanate with oxidized glutathione (GSSG) according to the method of Raturi and Mutus with some modifications. Protein activity was evaluated by monitoring the emission fluorescence increase (λem = 545 nm and λex = 525 nm), and the effect of punicalagin (concentration ranging from 0.2 to 50 µM) was tested. Inhibition constants were extrapolated by GraphPad Prism 8.0 software (GraphPad Software, San Diego, CA, USA), plotting the obtained data as logarithm dose-response curves.
(§4) Punicalagin effects have also been studied on the enzymatic activity of PDIA3 and PDIA1. It is well known that both proteins catalyze oxidoreductase and isomerase reactions involving thiol groups and disulfide bonds. PDIs’ reductase activity was evaluated using di-E-GSSG as fluorogenic substrate and was calculated as the initial velocity in fluorescence increased due to the reduction in the fluorogenic substrate. […] For comparison purposes, the punicalagin inhibitory effect was extended to PDIA1. Results were analyzed as logarithmic dose response, and the half-maximal inhibitory concentrations (IC50) were evaluated (Figure 4).

PDIA3 [3] = molecular target: T2, PDIA3; set-up: method as in PMID 29425676; settings: PDIA3 reductase activity, non-competitive inhibitor; cited from earlier work
[4] = set-up: method as in printed; settings: background statement, ref not given; cited from earlier work
PDIA1 [5] = molecular target: T1, PDIA1; assay: Isothermal titration calorimetry, PDIA1; type: binding; settings: ITC, PDIA1 reduced form, 25 °C
Experimental: (§5) Punicalagin interaction with PDIA3 and PDIA1 was investigated using isothermal titration calorimetry (ITC) with a MicroCal ITC200 (Malvern Instruments, Malvern, UK). […] Protein solution was loaded in the sample cell (0.2 mL), and the syringe was filled with punicalagin 250 µM dissolved in the same buffer. A total of 20 ligand aliquots (the first aliquot of 0.4 µL in 0.8 s and the other 19 aliquots of 2 µL in 4 s) were gradually added to the sample cell at intervals of 200 s each other to allow baseline recovery. The syringe stirring speed was set at 800 rpm. Protein and punicalagin solutions were thoroughly degassed on the MicroCal’s Thermovac machine before loading to avoid air bubble formation during the titration. Data analyses were performed by Origin software version 8.0 (OriginLab, Northampton, MA, USA). The heat of dilution for the ligand was determined in parallel, and this value was subtracted from the integrated data before curve fitting. The integration of the area under each heat burst curve was determined. All injection heats as a function of the molar ratio were plotted and analyzed using the one set of sites model to provide the dissociation constants.

PDIA1 [6] = molecular target: T1, PDIA1; assay: Disulfide reductase activity with di-E-GSSG, PDIA1; type: biochemical; settings: PDIA1, di-E-GSSG substrate
Experimental: as §3, §4

PDIA3 [7] = molecular target: T2, PDIA3; assay: Differential scanning calorimetry thermal denaturation, PDIA3; type: binding; settings: reduced PDIA3 5 µM, punicalagin 25 µM
Experimental: (§6) Protein stability in solution was assayed by differential scanning calorimetry (DSC) with a Microcal VP-DSC (Microcal, Northampton, MA, USA) testing both proteins. […] The reference cell was filled with protein-free buffer. A heating rate of 60 °C h^−1 was set, and the measurement cell worked under an excess pressure of 0.2 kPa to avoid air bubble formation during the heating. The heat absorption during the denaturation process was measured by subtracting the instrumental baseline from the sample trace and normalizing for protein concentration. To test the effect of the ligand on protein stability, analysis was also performed on both proteins in the presence of punicalagin (25 µM final concentration). The melting points (Tm, temperature at which excess heat capacity reaches a maximum) were directly observable from the thermogram. Nevertheless, data deconvolution using the Origin software provided by MicroCal was necessary to obtain Tm values.

PDIA1 [8] = molecular target: T1, PDIA1; assay: Differential scanning calorimetry thermal denaturation, PDIA1; type: binding; settings: reduced PDIA1 5 µM, punicalagin 25 µM
Experimental: as §6

PDIA3 [9] = molecular target: T2, PDIA3; assay: Isothermal titration calorimetry, PDIA3; type: binding; settings: ITC, PDIA3 reduced form, 25 °C
Experimental: as §5

PDIA3 [10] = molecular target: T2, PDIA3; assay: Tryptophan fluorescence quenching titration, PDIA3; type: binding; settings: for Stern–Volmer constant KSV: 0.1 × 10^−6 M protein; for Stern–Volmer constant KSV / Kd: pH 7.4, 25 °C; for Kd: fluorescence quenching
Experimental: as §1, §2

T1 sequence (P07237 18-508): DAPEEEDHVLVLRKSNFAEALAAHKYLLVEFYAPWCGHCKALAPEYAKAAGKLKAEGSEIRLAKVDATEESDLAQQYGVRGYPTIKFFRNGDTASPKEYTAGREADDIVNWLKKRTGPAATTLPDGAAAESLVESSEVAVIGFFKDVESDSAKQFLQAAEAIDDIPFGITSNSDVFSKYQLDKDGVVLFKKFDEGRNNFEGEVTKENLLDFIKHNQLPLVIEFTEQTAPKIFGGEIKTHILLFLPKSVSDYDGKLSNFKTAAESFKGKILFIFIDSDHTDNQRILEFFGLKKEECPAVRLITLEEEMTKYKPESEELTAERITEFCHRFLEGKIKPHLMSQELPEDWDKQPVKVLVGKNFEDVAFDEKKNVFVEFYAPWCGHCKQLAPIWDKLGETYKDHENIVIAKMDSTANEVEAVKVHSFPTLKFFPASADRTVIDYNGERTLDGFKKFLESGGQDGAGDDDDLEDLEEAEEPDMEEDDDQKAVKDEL

## O=C1O[C@H]2[C@@H]3OC(=O)c4cc(O)c(O)c(O)c4-c4c(O)c(O)c5oc(=O)c6c(c(O)c(O)c7oc(=O)c4c5c76)-c4c(cc(O)c(O)c4O)C(=O)OC[C@H]3OC(O)[C@@H]2OC(=O)c2cc(O)c(O)c(O)c2-c2c1cc(O)c(O)c2O (mixture of isomers) [punicalagin]
PDIA1 [1]; PDIA1, KSV = Kqτ, τ in the order of 1.0 × 10^−8 s
  Quenching constant Kq: greater than 1.0 × 10^10 M^1s^−1
PDIA1 [1]; PDIA1, both proteins always greater
  Stern–Volmer constant (bound stated in text): greater than 1.0 × 10^4 M^−1
PDIA1 [1]; PDIA1 not reduced form
  Stern–Volmer constant KSV: 183.2 ± 2.7 M^−1 × 10^3
  Kd: 4.9 µM
PDIA1 [1]; PDIA1 reduced form
  Stern–Volmer constant KSV: 97.9 ± 2.1 M^−1 × 10^3
  Kd: 11.9 µM
PDIA3 [2]
  IC50: 1.5 ± 0.2 µM
PDIA3 [3]
  Ki: 0.39 µM
[4]
  solubility in water: soluble in water
PDIA1 [5]
  Kd: 1 ± 0.2 µM
  TΔS: 23.4 ± 2.1 kJ/mol
  ΔH: -11.3 ± 1.7 kJ/mol
PDIA1 [6]
  IC50: 6.1 ± 0.6 µM
PDIA3 [7]; protein alone 44.9 °C
  Tm of first endothermic peak in presence of punicalagin: 40.4 °C
PDIA3 [7]; protein alone 53.9 °C
  Tm of second endothermic peak in presence of punicalagin: 51.6 °C
PDIA1 [8]; protein alone 46.0 °C
  Tm of first endothermic peak in presence of punicalagin: 42 °C
PDIA1 [8]; protein alone 61.0 °C
  Tm of second endothermic peak in presence of punicalagin: 60 °C
PDIA3 [9]
  Kd: 1.2 ± 0.3 µM
  TΔS: 28.5 ± 1.7 kJ/mol
  ΔH: -4.6 ± 0.84 kJ/mol
PDIA3 [10]; PDIA3, KSV = Kqτ, τ in the order of 1.0 × 10^−8 s
  Quenching constant Kq: greater than 1.0 × 10^10 M^1s^−1
PDIA3 [10]; PDIA3, both proteins always greater
  Stern–Volmer constant (bound stated in text): greater than 1.0 × 10^4 M^−1
PDIA3 [10]; PDIA3 not reduced form
  Stern–Volmer constant KSV: 240.4 ± 3.6 M^−1 × 10^3
  Kd: 3.9 µM
PDIA3 [10]; PDIA3 reduced form
  Stern–Volmer constant KSV: 157.1 ± 1.9 M^−1 × 10^3
  Kd: 10 µM
